Measured values reported in patent publication US8710001B2, “PEGylated, extended insulins” (Novo Nordisk A/S, priority 2006, dated 2014).

Molecular target: human insulin receptor, A-isoform (without exon 11) (Homo sapiens, UniProt P06213)
Assay: Insulin receptor binding, SPA (Scintillation Proximity Assay) microtiterplate antibody capture assay
Details: affinity relative to human insulin; purified recombinant human insulin receptor; A14Tyr[125I]-human insulin tracer; 16 hours incubation
Procedure: The affinity of the insulin derivatives of this invention for the human insulin receptor is determined by a SPA assay (Scintillation Proximity Assay) microtiterplate antibody capture assay. SPA-PVT antibody-binding beads, anti-mouse reagent (Amersham Biosciences, Cat No. PRNQ0017) are mixed with 25 ml of binding buffer (100 mM HEPES pH 7.8; 100 mM sodium chloride, 10 mM MgSO4, 0.025% Tween-20). Reagent mix for a single Packard Optiplate (Packard No. 6005190) is composed of 2.4 μl of a 1:5000 diluted purified recombinant human insulin receptor (either with or without exon 11), an amount of a stock solution of A14Tyr[^125I]-human insulin corresponding to 5000 cpm per 100 μl of reagent mix, 12 μl of a 1:1000 dilution of F12 antibody, 3 ml of SPA-beads and binding buffer to a total of 12 ml. A total of 100 μl reagent mix is then added to each well in the Packard Optiplate and a dilution series of the insulin derivative is made in the Optiplate from appropriate samples. The samples are then incubated for 16 hours while gently shaken. The phases are the then separated by centrifugation for 1 min and the plates counted in a Topcounter. The binding data were fitted using the nonlinear regression algorithm in the GraphPad Prism 2.01 (GraphPad Software, San Diego, Calif.).

human insulin receptor, A-isoform (without exon 11), sequence (P06213 28-746 isoform P06213-2 limits assumed): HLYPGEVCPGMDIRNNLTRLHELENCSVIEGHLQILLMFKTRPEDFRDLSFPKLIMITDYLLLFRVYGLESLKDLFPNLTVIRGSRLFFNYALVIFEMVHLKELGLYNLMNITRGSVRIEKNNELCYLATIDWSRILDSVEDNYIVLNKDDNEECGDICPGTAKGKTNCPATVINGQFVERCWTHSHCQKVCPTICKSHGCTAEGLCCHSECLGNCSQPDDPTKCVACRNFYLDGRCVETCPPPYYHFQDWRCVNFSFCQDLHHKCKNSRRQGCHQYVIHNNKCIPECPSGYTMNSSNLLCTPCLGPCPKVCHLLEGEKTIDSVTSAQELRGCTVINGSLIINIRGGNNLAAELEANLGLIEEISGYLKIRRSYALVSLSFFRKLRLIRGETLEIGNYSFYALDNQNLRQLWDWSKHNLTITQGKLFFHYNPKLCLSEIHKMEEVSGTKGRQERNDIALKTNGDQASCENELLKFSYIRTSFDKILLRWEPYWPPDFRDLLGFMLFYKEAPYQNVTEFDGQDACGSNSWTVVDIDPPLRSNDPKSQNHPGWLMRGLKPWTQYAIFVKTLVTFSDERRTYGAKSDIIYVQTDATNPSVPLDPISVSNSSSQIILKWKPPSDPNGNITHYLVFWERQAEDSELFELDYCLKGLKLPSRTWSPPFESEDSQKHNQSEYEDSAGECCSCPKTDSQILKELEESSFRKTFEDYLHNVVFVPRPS
human insulin receptor, A-isoform (without exon 11), sequence (P06213 763-1382 partner limits assumed): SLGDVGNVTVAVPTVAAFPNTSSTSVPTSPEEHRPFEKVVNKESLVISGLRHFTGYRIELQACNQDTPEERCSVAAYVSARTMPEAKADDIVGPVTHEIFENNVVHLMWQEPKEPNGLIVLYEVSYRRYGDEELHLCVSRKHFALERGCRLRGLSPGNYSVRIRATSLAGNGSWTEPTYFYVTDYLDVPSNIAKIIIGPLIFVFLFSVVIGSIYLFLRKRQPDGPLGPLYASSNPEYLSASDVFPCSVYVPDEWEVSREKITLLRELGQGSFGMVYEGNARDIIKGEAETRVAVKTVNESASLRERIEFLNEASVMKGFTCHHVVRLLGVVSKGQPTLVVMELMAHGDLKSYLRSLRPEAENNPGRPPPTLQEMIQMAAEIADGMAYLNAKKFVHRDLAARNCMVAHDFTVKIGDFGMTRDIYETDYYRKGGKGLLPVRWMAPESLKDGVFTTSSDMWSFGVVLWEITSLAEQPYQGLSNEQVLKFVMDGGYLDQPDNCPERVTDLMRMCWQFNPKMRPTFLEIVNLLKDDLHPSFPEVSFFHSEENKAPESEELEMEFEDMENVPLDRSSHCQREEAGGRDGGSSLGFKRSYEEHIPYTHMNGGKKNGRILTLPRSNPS

Substance | Insulin receptor binding, A-isoform (without exon 11) Relative to human insulin [%]
A14E, A22K(N^+mPEG2000-Propionyl), B25H, B29R, desB30 Human Insulin [Example 16] | 15
A14E, A22K(N^ε(mdPEG12)3-dPEG4-yl), B25H, B29R, desB30 Human Insulin [Example 17] | 19
A14E, A22K(N^ε(mdPEG12)3-dPEG4-yl-dPEG12-yl), B25H, B29R, desB30 Human Insulin [Example 18] | 16
A22G, A23G, A24G, A25K(N^εmPEG750-Propionyl), B29R, desB30 Human Insulin [Example 7] | 44
A22G, A23K(N^εmPEG2000-Propionyl), B29R, desB30 Human Insulin [Example 8] | 58
A22K(N^ε(mdPEG12)3-dPEG4-yl), B29R, desB30 Human Insulin [Example 6] | 120
A22K(N^ε(mdPEG12)3-dPEG4-yl-dPEG12-yl), B29R, desB30 Human Insulin [Example 19] | 106
A22K(N^ε-mPEG2000-Propionyl), B29R, desB30 Human Insulin [Example 1] | 90
A22K(N^εmPEG2000-Propionyl), B29R, desB30 Human Insulin [Example 2] | 90
B29Q, B31K(N^ε(mPEG2000-Propionyl)) Human Insulin [Example 22] | 14
